# Measured values as given in ChEMBL document CHEMBL1156129, “Synthesis, structure-activity relationships, and characterization of novel nonsteroidal and selective androgen receptor modulators” (J Med Chem, 2009).
# Calls of active or inactive are those of the source. The calls are words filed in the database; no cut-off is given here.
# How the values were obtained:
# [1] = Oral bioavailability in Sprague-Dawley rat at 10 mg/kg, po; type: ADME, organism-based; conditions: in vivo
# [2] = Plasma concentration in Beagle dog at 10 mg/kg, po after 24 hrs; type: ADME, organism-based, Canis lupus familiaris; parameters: dose 10 mg/kg, route oral
# [3] = Plasma concentration in Beagle dog at 1 mg/kg, iv after 1 hrs; type: ADME, organism-based, Canis lupus familiaris; parameters: dose 1 mg/kg, route intravenous
# [4] = Plasma concentration in Beagle dog at 10 mg/kg, po after 0.5 hrs; type: ADME, organism-based, Canis lupus familiaris; parameters: dose 10 mg/kg, route oral
# [5] = Plasma concentration in Sprague-Dawley rat at 1 mg/kg, iv after 30 mins; type: ADME, organism-based; parameters: dose 1 mg/kg, route intravenous
# [6] = Plasma concentration in Sprague-Dawley rat at 1 mg/kg, iv after 480 mins; type: ADME, organism-based; parameters: dose 1 mg/kg, route intravenous
# [7] = Metabolic stability in human hepatocyte assessed as half life; type: ADME, cell-based, Liver; conditions: hepatocytes
# [8] = Plasma concentration in Sprague-Dawley rat at 10 mg/kg, po after 10 mins; type: ADME, organism-based; parameters: dose 10 mg/kg, route oral
# [9] = Plasma concentration in Beagle dog at 10 mg/kg, po after 6 hrs; type: ADME, organism-based, Canis lupus familiaris; parameters: dose 10 mg/kg, route oral
# [10] = Plasma concentration in Sprague-Dawley rat at 10 mg/kg, po after 120 mins; type: ADME, organism-based; parameters: dose 10 mg/kg, route oral
# [11] = Plasma concentration in Beagle dog at 10 mg/kg, po after 0.25 hrs; type: ADME, organism-based, Canis lupus familiaris; parameters: dose 10 mg/kg, route oral
# [12] = Plasma concentration in Sprague-Dawley rat at 10 mg/kg, po after 30 mins; type: ADME, organism-based; parameters: dose 10 mg/kg, route oral
# [13] = Half life in Beagle dog at 1 mg/kg, iv; type: ADME, organism-based, Canis lupus familiaris; parameters: dose 1 mg/kg, route intravenous; conditions: in vivo
# [14] = target: T1, Androgen receptor (Homo sapiens, UniProt P10275); assay: Agonist activity at androgen receptor in human MDA-KB2 cells transfected with MMTV linked luciferase assessed as transcriptional activation by luciferase reporter gene assay
# T1 sequence (P10275 whole entry): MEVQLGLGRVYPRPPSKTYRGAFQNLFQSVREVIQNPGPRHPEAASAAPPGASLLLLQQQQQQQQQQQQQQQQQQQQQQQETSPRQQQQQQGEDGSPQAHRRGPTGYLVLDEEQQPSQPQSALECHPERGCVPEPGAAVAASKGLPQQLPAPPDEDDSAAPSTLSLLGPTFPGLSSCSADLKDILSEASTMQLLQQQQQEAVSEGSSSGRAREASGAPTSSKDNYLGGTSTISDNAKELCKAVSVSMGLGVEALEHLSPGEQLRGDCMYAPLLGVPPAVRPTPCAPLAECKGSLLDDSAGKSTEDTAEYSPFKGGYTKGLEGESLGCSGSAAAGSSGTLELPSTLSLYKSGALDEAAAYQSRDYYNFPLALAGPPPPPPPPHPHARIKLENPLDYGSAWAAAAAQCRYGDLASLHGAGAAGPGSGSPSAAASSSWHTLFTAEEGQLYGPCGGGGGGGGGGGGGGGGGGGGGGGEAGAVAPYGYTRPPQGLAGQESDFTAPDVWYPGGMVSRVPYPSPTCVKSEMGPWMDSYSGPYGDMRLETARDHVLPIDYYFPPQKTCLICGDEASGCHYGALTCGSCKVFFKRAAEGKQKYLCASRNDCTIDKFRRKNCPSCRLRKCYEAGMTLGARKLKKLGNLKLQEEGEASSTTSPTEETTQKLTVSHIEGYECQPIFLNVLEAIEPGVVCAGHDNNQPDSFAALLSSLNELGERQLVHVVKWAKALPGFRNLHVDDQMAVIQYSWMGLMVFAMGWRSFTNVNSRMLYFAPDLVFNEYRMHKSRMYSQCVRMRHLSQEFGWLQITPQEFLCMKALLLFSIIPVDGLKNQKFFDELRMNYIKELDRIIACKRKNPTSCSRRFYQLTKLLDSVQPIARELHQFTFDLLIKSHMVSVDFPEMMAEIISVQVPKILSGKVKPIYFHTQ
# [15] = Plasma concentration in Sprague-Dawley rat at 1 mg/kg, iv after 10 mins; type: ADME, organism-based; parameters: dose 1 mg/kg, route intravenous
# [16] = Plasma concentration in Beagle dog at 1 mg/kg, iv after 6 hrs; type: ADME, organism-based, Canis lupus familiaris; parameters: dose 1 mg/kg, route intravenous
# [17] = Binding affinity to androgen receptor LBD T877A mutant in hamster DDT cells by scintillation counting; type: cell-based, Cricetinae
# [18] = Oral bioavailability in Beagle […] at 10 mg/kg, po; type: ADME, organism-based, Canis lupus familiaris; conditions: in vivo
# [19] = Plasma concentration in Sprague-Dawley rat at 10 mg/kg, po after 480 mins; type: ADME, organism-based; parameters: dose 10 mg/kg, route oral
# [20] = system: Rattus norvegicus; assay: Androgenic effect in rat ORX model assessed as reversal of testosterone propionate-induced prostate weight treated at 10 mg/kg, po; type: functional, organism-based; parameters: dose 10 mg/kg; conditions: Prostate gland
smiles,measurement,setting,value
Cc1c(N2[C@@H]3CC[C@H]2C[C@@](C)(O)C3)ccc(C#N)c1Cl,bioavailability,[1],38%
same,concentration at 24 h,[2],3.2 ng/mL
same,concentration at 1 h,[3],89.3 ng/mL
same,concentration at 0.5 h,[4],592 ng/mL
same,concentration at 0.5 h,[5],234 ng/mL
same,concentration at 8 h,[6],14.9 ng/mL
same,half-life,[7],5 h
same,concentration at 10 min,[8],148 ng/mL
same,concentration at 6 h,[9],104 ng/mL
same,concentration at 2 h,[10],238 ng/mL
same,concentration at 0.25 h,[11],835 ng/mL
same,concentration at 0.5 h,[12],314 ng/mL
same,half-life,[13],2.1 h
same,EC50,[14],0.251 nM
same,concentration at 10 min,[15],447 ng/mL
same,concentration at 6 h,[16],9.5 ng/mL
same,pKi,[17],5.5
same,bioavailability,[18],56%
same,concentration at 8 h,[19],253 ng/mL
same,Activity,[20],Active
